The target in this experiment is IDO (Homo sapiens, UniProt P14902). In words: LLE_IDO_ABS_DR (IDO assay).

The text below walks through data of patent US9758492B2, “IDO inhibitors” (Bristol-Myers Squibb Company, priority 2013, dated 2017).

Chain of IDO (P14902 whole entry): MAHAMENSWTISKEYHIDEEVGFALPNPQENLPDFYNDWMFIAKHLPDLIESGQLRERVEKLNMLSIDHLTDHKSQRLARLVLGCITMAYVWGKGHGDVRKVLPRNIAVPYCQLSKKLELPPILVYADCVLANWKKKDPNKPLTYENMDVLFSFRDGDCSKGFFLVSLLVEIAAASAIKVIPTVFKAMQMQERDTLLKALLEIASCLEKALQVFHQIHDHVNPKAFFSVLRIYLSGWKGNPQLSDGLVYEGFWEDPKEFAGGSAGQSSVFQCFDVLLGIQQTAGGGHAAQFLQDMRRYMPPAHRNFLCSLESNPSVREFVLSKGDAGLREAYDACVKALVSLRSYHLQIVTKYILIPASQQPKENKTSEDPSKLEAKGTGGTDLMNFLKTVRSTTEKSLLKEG

For orientation: IC50 means the concentration that inhibits the measured activity by half. Low readings indicate inhibition by little substance, high ones a need for much substance. `Cc1ccc(NC(=O)Nc2cc(-c3ccccc3-c3nnn[nH]3)ccc2N(C)CC(C)C)cc1` [Example 179, 1-(4-(isobutyl(methyl)amino)-2′-(1H-tetrazol-5-yl)-[1,1′-biphenyl]-3-yl)-3-(p-tolyl)urea] displayed an IC50 of 50 nM.

The molecule `C=C(C)CN(CC(F)(F)F)c1ccc(-c2ccccc2C(=O)O)cc1NC(=O)Nc1ccc(C)cc1` [Example 471] gave an IC50 of 40 nM.

Take `O=C(Nc1ccc(OC(F)(F)F)cc1)Nc1cc(-c2ccccc2-c2nnn[nH]2)ccc1N(CCC(F)(F)F)Cc1ccccn1` [Example 343, 1-(4-((pyridin-2-ylmethyl)(3,3,3-trifluoropropyl)amino)-2′-(1H-tetrazol-5-yl)-[1,1′-biphenyl]-3-yl)-3-(4-(trifluoromethoxy)phenyl)urea]: it took 230 nM to reach half-maximal inhibition (IC50).

Molecule `CC(C)CN(CC(C)C)c1ccc(-c2ccccc2-c2nnn[nH]2)cc1NC(=O)Nc1cccc2cnccc12` [Example 247, 1-(4-(diisobutylamino)-2′-(1H-tetrazol-5-yl)-[1,1′-biphenyl]-3-yl)-3-(isoquinolin-5-yl)urea] had an IC50 of 2760 nM.

`CC(C)CN(CC(C)C)c1ccc(-c2ccccc2-c2nnn[nH]2)cc1NC(=O)Nc1ccc(F)cc1F` [Example 137, 1-(2,4-difluorophenyl)-3-(4-(diisobutylamino)-2′-(1H-tetrazol-5-yl)biphenyl-3-yl)urea] returned a half-inhibitory concentration (IC50) of 5.24 nM.

`CC(C)CN(CC(C)C)c1ccc(-c2ccccc2-c2nnn[nH]2)cc1NC(=O)NC1CC1` [Example 139, 1-cyclopropyl-3-(4-(diisobutylamino)-2′-(1H-tetrazol-5-yl)biphenyl-3-yl)urea] yielded an IC50 of 1980 nM.

In turn, `Cc1ccc(NC(=O)Nc2cc(-c3ccccc3C(=O)O)ccc2N(CCC(C)C(F)(F)F)C2CCCCC2)cc1` (stereo not shown) [Example 188, 4′-(cyclohexyl(4,4,4-trifluoro-3-methylbutyl)amino)-3′-(3-(p-tolyl)ureido)-[1,1′-biphenyl]-2-carboxylic acid] registered an IC50 of 290 nM.

The molecule `CC(C)CN(CC(C)C)c1ccc(-c2ccccc2-c2nnn[nH]2)cc1NC(=O)Nc1ccc(F)c(C#N)c1` [Example 250, 1-(3-Cyano-4-fluorophenyl-3-(4-diisobutylamino)-2′-(1H-tetrazol-5-yl)-[1,1′-biphenyl]-3-yl)urea] registered an IC50 of 930 nM.

As for `O=C(Nc1ccc(C2CC2)cc1)Nc1cc(-c2ccccc2-c2nnn[nH]2)ccc1N(CCc1ccccc1)CCC(F)(F)F` [Example 298, 1-(4-cyclopropylphenyl)-3-(4-(phenethyl(3,3,3-trifluoropropyl)amino)-2′-(1H-tetrazol-5-yl)-[1,1′-biphenyl]-3-yl)urea], inhibition was half-maximal at 80 nM (IC50).

For the molecule `CC(C)CN(CC(C)C)c1ccc(-c2ccccc2-c2nnn[nH]2)cc1NC(=O)Nc1cccc(S(N)(=O)=O)c1` [Example 266, 3-(3-(4-(diisobutylamino)-2′-(1H-tetrazol-5-yl)-[1,1′-biphenyl]-3-yl)ureido) benzenesulfonamide], 4490 nM corresponded to half-maximal inhibition (IC50).

`CCCCN(CCCC)c1ccc(-c2cc(F)ccc2C(=O)O)cc1NC(=O)Nc1ccc(C)cc1` [Example 90, 4′-(dibutylamino)-5-fluoro-3′-(3-p-tolylureido)biphenyl-2-carboxylic acid] had an IC50 of 10 nM.

Consider `[2H]C([2H])(C(C)C)N(c1ccc(-c2ccccc2-c2nnn[nH]2)cc1NC(=O)Nc1ccccc1F)C1CCCCC1` [Example 32, 1-(4-(Cyclohexyl(1,1-dideutero-2-methylpropyl)amino)-2′-(1H-tetrazol-5-yl)biphenyl-3-yl)-3-(2-fluorophenyl)urea], for which the IC50 is 2.54 nM.

`Cc1ccc(NC(=O)Nc2cc(-c3ccccc3-c3nnn[nH]3)ccc2N(CCC(F)(F)F)CC2CC2)cc1` [Example 63, 1-(4-((cyclopropylmethyl) (3,3,3-trifluoropropyl)amino)-2′-(1H-tetrazol-5-yl)biphenyl-3-yl)-3-p-tolylurea] gave a half-inhibitory concentration (IC50) of 120 nM.
